This note sets out measurements from patent US20210070718A1, “NOVEL PHENYLSULFONYL OXAZOLE DERIVATIVE AND USE THEREOF” (priority 2018, published 2021).

Assay type in all cases: in vivo
Experiment [1] deals with APP/PS1 mouse. Kind of experiment: Fear conditioning test. The settings on record: 50 mg/kg intraperitoneally 3 times a week for 2 months, FIG. 5D. The text has this:
(§1) A mouse experiment was approved by the Kyungpook National University Institutional Animal Care and Use Committee (IACUC). As an animal model of neurodegenerative disease (particularly, Alzheimer's disease), a transgenic mouse line overexpressing APPswe (hAPP695swe) and PS1 (presenilin-1M146V) based on a C57BL/6 mouse (Charles River, UK) was used. [hereinafter, APP/PS1 mouse (denoted by AD), GlaxoSmithKline Co., Ltd.]
(§2) To confirm a therapeutic effect of the autophagy enhancing compound obtained in <Example 1>, an experimental substance was administered to the animal model according to the experimental outline (schedule) illustrated in FIG. 1. Specifically, PBS or the autophagy enhancing compound was intraperitoneally injected into a 6.5-month-old mouse 3 times a week at a dose of 50 mg/kg. After two months of the injection of the autophagy enhancing compound, behavioral analysis was performed, and the brain tissue of the mouse was used as a sample after the behavioral analysis (i.e., at 9.5 […] of mouse) (see FIG. 1).
(§3) In order to confirm potential effects on learning and memory, Morris water maze (MWM) and fear conditioning tests were performed. In the MWM, the mouse learned a task 4 times a day for 10 days, a platform was removed on day 11, and a probe trial was performed. […]

Experiment [2] has as its system APP/PS1 mouse. Kind of experiment: Amyloid-β and tau deposition by thioflavin S / immunofluorescence staining in brain cortex and hippocampus. The following applies: 50 mg/kg intraperitoneally 3 times a week for 2 months, compared to APP/PS1 mouse (PBS).
Source text: as §1, §2
After immobilization of the mouse's cerebrum and hippocampus, 0.5% thioflavin S (Sigma-Aldrich), anti-20G10 against Aβ42 (mouse, 1:1000) and anti-G30 against A1340 (rabbit, 1:1000), anti-GFAP (rabbit, 1:500, DAKO) and anti-Iba-1 (rabbit, 1:500, WAKO) were incubated together. The sites were analyzed using a confocal laser scanning microscope or an Olympus BX51 microscope equipped with Fluoview SV1000 imaging software (Olympus FV1000, Japan). A percentage of an area of a stained area to an area of total tissues was quantified and analyzed by using Metamorph software (Molecular Devices).
In order to determine whether the aforementioned autophagy enhancing compound had effects for prevention and treatment on neurodegenerative disease, the effect of the compound on an Alzheimer's model was representatively evaluated.
First, an amyloid-β (Aβ) profile of an Alzheimer's lesion and the deposition degree of tau protein were confirmed. First, the cerebral cortex and hippocampus regions of the mouse were stained with thioflavin S (ThioS) according to a known method to confirm the deposition degree of fibrillar amyloid-β. In addition, immunofluorescence staining of Aβ40, Aβ42, and AT8 was performed to confirm the deposition degree of amyloid-β and tau protein.

The test system of experiment [3] is APP/PS1 mouse. In words: Western blotting of autophagy-related proteins in brain tissue.
Source text: as §1, §2
Expression of the following genes was analyzed using Western blotting. First, antibodies against LC3, beclin-1, and p62 [all, purchased from cell signaling Technologies], cathepsin D (R&D systems) and β-actin (Santa Cruz) were used, and density quantification was performed by using ImageJ software (US National Institutes of Health).
In order to confirm how the aforementioned autophagy enhancing compound (in particular, 5-methoxy-4-(phenylsulfonyl)-2-(4-(trifluoromethyl)phenyl)oxazole) actually act in an autophagy-related pathway in vivo, conversion of LC3-I to LC3-II, and expression levels of beclin-1, cathepsin D and p62 were confirmed through a Western blotting experiment in brain tissue samples of 9.5-month-old WT, APP/PS1 (untreated group), and an APP/PS1 mouse injected with the autophagy enhancing compound.
For orientation: Immunoblotting shows a protein as a band on a membrane.

The subject of experiment [4] is APP/PS1 mouse. Kind of experiment: Astrocyte (GFAP) and microglia (Iba-1) immunofluorescence in brain. The settings on record: 50 mg/kg intraperitoneally 3 times a week for 2 months, compared with APP/PS1 mouse.
Source text: as §1
To confirm a therapeutic effect of the autophagy enhancing compound obtained in <Example 1>, an experimental substance was administered to the animal model according to the experimental outline (schedule) illustrated in FIG. 1. Specifically, PBS or the autophagy enhancing compound was intraperitoneally injected into a 6.5-month-old mouse 3 times a week at a dose of 50 mg/kg. […]
After immobilization of the mouse's cerebrum and hippocampus, 0.5% thioflavin S (Sigma-Aldrich), anti-20G10 against Aβ42 (mouse, 1:1000) and anti-G30 against A1340 (rabbit, 1:1000), anti-GFAP (rabbit, 1:500, DAKO) and anti-Iba-1 (rabbit, 1:500, WAKO) were incubated together. The sites were analyzed using a confocal laser scanning microscope or an Olympus BX51 microscope equipped with Fluoview SV1000 imaging software (Olympus FV1000, Japan). A percentage of an area of a stained area to an area of total tissues was quantified and analyzed by using Metamorph software (Molecular Devices). […]

Experiment [5] relates to APP/PS1 mouse. Kind of experiment: Real-time quantitative PCR of inflammatory cytokines in brain tissue. The settings on record: 50 mg/kg intraperitoneally 3 times a week for 2 months, brain mRNA, FIG. 6C.
Source text: as §1, §2
A real-time quantitative PCR method was used to measure the expression levels of inflammatory response-related cytokines (TNF-α, IL-1β, and IL-6). Total RNA was extracted from the brain tissue using an RNeasy Plus mini kit (Qiagen, Korea, Ltd), and cDNA was synthesized from a total of 5 μg of RNA using a kit from Clontech (Mountain View, Calif.). In addition, by using a Corbett research RG-6000 real-time PCR instrument, real-time quantitative PCR was performed by setting 95° C., 10 minutes; 95° C., 10 seconds; and 58° C., 15 seconds as one cycle and repeating 40 cycles.

Experiment [6] relates to APP/PS1 mouse. Kind of experiment: Morris water maze (MWM) test. The following applies: 50 mg/kg intraperitoneally 3 times a week for 2 months, FIGS. 5A to 5C.
Source text: as §1, §2, §3

Setting [7] is: 9.5-month-old APP/PS1 mouse, 50 mg/kg intraperitoneally 3 times a week for 2 months, versus increased level in APP/PS1 mouse.

As for `COc1oc(-c2ccc(C(F)(F)F)cc2)nc1S(=O)(=O)c1ccccc1` [autophagy enhancing compound, 5-methoxy-4-(phenylsulfonyl)-2-(4-(trifluoromethyl)phenyl)oxazole], in the experiment on APP/PS1 mouse [1], the “memory in fear conditioning test (contextual and tone tasks)” value is “remarkable memory improvement effect”. In addition, in the experiment with APP/PS1 mouse [2] (cerebral cortex and hippocampus, FIG. 2), the “deposition of fibrillar Aβ (thioflavin S)” value is given as “significantly low”. Also, the “deposition of Aβ40” value in the experiment on APP/PS1 mouse [2] (cortex and hippocampus, FIG. 3A) was “significantly low”. Besides, the “deposition of Aβ42” value in the experiment with APP/PS1 mouse [2] (cortex and hippocampus, FIG. 3B) is reported as “significantly low”. The “deposition of tau protein (AT8)” value in the experiment on APP/PS1 mouse [2] (cortex and hippocampus, FIG. 4) was “significantly low”. In addition, in the experiment on APP/PS1 mouse [3] (9.5-month-old APP/PS1 mouse, 50 mg/kg intraperitoneally 3 times a week for 2 months, FIG. 7), the “level of LC3-II” value is listed as “decreased to a level similar to WT”. In addition, in the experiment with APP/PS1 mouse [3] (setting [7]), the “expression level of cathepsin D” value is “decreased” and the “expression level of p62” value is on record as “decreased”. In addition, the “expression of beclin-1” value with APP/PS1 mouse [3] (9.5-month-old WT, APP/PS1 and injected APP/PS1 mouse, FIG. 7) is “no large difference in the three groups”. For the same molecule, in the experiment with APP/PS1 mouse [4] (FIG. 6A), the “activity of astrocytes (GFAP)” value is listed as “significantly reduced”. Moreover, the “activity of microglia (Iba-1)” value in the experiment on APP/PS1 mouse [4] (FIG. 6B) is given as “significantly reduced”. In the experiment on APP/PS1 mouse [5], the “gene expression of inflammatory cytokine IL-1β” value was “restored to a normal level”, the “gene expression of inflammatory cytokine IL-6” value is “restored to a normal level” and the “gene expression of inflammatory cytokine TNF-α” value is recorded as “restored to a normal level”. Also, the “impairment in spatial memory, cognition and memory formation (Morris water maze)” value with APP/PS1 mouse [6] is reported as “significantly improved”.
